# Test results from patent publication US6046235A, “Sulfur-containing amino acid derivatives” (Santen Pharmaceutical Co., Ltd., priority 1996, dated 2000).
# pIC50: −log10 of the molar value. Read-outs that look alike come from different tables or passages of the source.
# Experiments:
# LTA4 hydrolase [1] = details: literature; cited from earlier work
# [2] = tested on: collagen-induced arthritis model; details: J. Med. Chem., 37, 3197-3199 (1994); cited from earlier work
# LTA4 hydrolase [3] = target: T1, LTA4 hydrolase (Cavia porcellus, UniProt P19602); assay: LTA4 hydrolase inhibition (LTB4 formed from LTA4, guinea pig lung enzyme preparation); format: biochemical
# T1 construct: Lungs were excised from a Hartley guinea pig; from tissue; host or cells: Hartley guinea pig lung, 100,000×g supernatant, 40-70% ammonium sulfate fraction, dialyzed
# T1 sequence (P19602 1-611): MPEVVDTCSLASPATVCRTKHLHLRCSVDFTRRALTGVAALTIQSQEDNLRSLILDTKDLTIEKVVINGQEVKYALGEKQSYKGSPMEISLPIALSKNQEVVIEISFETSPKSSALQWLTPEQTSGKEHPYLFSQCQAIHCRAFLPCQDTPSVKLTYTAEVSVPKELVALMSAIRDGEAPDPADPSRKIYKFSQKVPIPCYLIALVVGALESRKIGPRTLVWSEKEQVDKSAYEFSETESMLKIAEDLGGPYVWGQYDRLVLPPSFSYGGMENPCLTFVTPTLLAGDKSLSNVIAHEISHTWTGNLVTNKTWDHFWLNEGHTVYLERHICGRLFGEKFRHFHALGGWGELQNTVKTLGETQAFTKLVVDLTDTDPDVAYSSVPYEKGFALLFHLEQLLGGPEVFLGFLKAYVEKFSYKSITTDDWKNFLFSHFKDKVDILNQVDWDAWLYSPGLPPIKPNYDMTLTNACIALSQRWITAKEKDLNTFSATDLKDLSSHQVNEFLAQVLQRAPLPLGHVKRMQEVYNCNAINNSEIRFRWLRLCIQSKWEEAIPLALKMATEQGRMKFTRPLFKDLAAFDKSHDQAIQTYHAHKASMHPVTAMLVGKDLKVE
# Protocol: Effects of the present compounds on LTA4 hydrolase were examined according to the method described in the literature.
# Lungs were excised from a Hartley guinea pig (body weight: 330 g). The lungs were homogenized in phosphoric acid buffer (50 mM, pH 7.4, containing 1 mM ethylenediaminetetraacetic acid (EDTA) and 1 mM dithiothreitol (DTT) having weight three times that of the lungs under ice-cooling. The homogenate was centrifuged at low speed (800×g) for 20 minutes, centrifuged at high speed (10,000×g) for 20 minutes and ultracentrifuged (100,000×g) for 60 minutes to give a supernatant. The supernatant was brought to 40% saturation by adding a saturated aqueous ammonium sulfate solution (pH 7.0-7.2, containing 1 mM DTT) dropwise under ice-cooling and centrifuged at high speed (10,000×g) for 20 minutes. The resulting supernatant was brought to 70% saturation by adding a saturated aqueous ammonium sulfate solution (pH 7.0-7.2, containing 1 mM DTT) dropwise and centrifuged at high speed (10,000×g) for 20 minutes. The obtained pellet was dissolved in 2 ml of Tris-acetic acid buffer (20 mM, pH 7.8, containing 1 mM DTT) and dialyzed in 2 liters of the solution to give the enzyme preparation.
# LTA4 used, which is the substrate, was prepared by hydrolyzing LTA4 methyl ester and dissolved in ethanol.
# In order to examine effects of the present compounds on the enzyme preparation, reactions were performed under the following condition using mixed solutions consisting of the composition shown in Table 1.
# HEPES buffer 50 mM, pH 7.8
# Enzyme preparation 0.4-0.6 mg protein
# Aqueous DTT solution 3 mM
# The above-mentioned solution (50 μl ) was incubated at 37° C. for one minute. To the reaction mixture was added 100 μl of a mixed liquid of acetonitrile-ethanol-acetic acid (150:50:3, volume ratio) under ice-cooling. The mixture was allowed to stand at -20° C. for 30 minutes and centrifuged at high speed (10,000×g) for five minutes to give a supernatant. An amount of LTB4 produced in the supernatant was measured by high-speed liquid chromatography.
# The degree of the inhibitory effect of each test compound on LTA4 hydrolase is expressed by the inhibition rate calculated by the following equation. [formula]
# A: amount of LTB4 formed in the absence of the test compound
# B: amount of LTB4 formed in the presence of the test compound
# Experiments were carried out under the same conditions as those of the above-mentioned "Pharmacological Test".
smiles,measurement,setting,value
O=C(O)c1cccc(C2CO2)c1 (centres unmarked) [3-oxiranylbenzoic acid],inhibitory effect on LTA4 hydrolase (in words),LTA4 hydrolase [1],inhibitory effects on LTA4 hydrolase
"O=C(O)C1(c2ccc3c(c2)OC[C@H](Cc2ccc(-c4ccccc4)cc2)[C@H]3O)CCCC1 [(+)-1-(3S, 4R)-[3-(4-phenylbenzyl)-4-hydroxychroman-7-yl]cyclopentanecarboxylic acid]",onset of arthritis (in words),[2],inhibited the onset of arthritis
same,inhibitory effect on LTA4 hydrolase (in words),LTA4 hydrolase [1],inhibitory effect on LTA4 hydrolase
"C[C@H](CS)C(=O)N[C@@H](CSC(C)(C)c1ccc(C2CCCCC2)cc1)C(=O)O [Compound No. 2-39, (2R)-3-[(4-Cyclohexyl-α,α-dimethyl)benzylthio]-2-[(2S)-3-mercapto-2-methylpropionylamino]propionic acid]",pIC50,"LTA4 hydrolase [3]; Table 2, guinea pig lung enzyme preparation, LTA4 63 μM, 37° C., one minute, pH 7.8, read-out: IC50 (concentration required to inhibit LTA4 hydrolase by 50%)",7.26
"CC(C)(C)c1ccc(CSC[C@H](NC(=O)C(CS)Cc2ccccc2)C(=O)O)cc1 (some centres unmarked) [known compound [II], reference compound]",inhibitory effect on LTA4 hydrolase relative to that of the present compound (No. 2-12),"LTA4 hydrolase [3]; Comparison Test, ratio to compound No. 2-12",about 1/100
same,inhibitory effect on LTA4 hydrolase relative to those of the present compounds,"LTA4 hydrolase [3]; Comparison Test, ratio to the present compounds",one tenth
same,pIC50,"LTA4 hydrolase [3]; Comparison Test, same conditions as Pharmacological Test, read-out: IC50",5.35
"CC(CS)C(=O)N[C@@H](CSCc1ccccc1)C(=O)O (some centres unmarked) [known compound [I], reference compound]",inhibitory effect on LTA4 hydrolase,"LTA4 hydrolase [3]; Comparison Test, even at a concentration of 10^-5 M",little inhibitory effect
